Measured values published in US20150259371A1, “METHODS AND COMPOUNDS FOR INHIBITING GLYCOSYLTRANSFERASES” (SIMON FRASER UNIVERSITY, priority 2010, published 2015).

Assays:
[1] = system: O-GlcNAc levels in CHO cells; test: Western blot of O-GlcNAc levels (CTD110.6) in treated CHO cells; type: cell-based, Chinese hamster
Method: Cell culture: Cells were grown in an incubator at 37° C. and 5% CO2 atmosphere. Media and serum were purchased from Invitrogen. COS-7 cells were cultured in Dulbecco's modified Eagle's medium (DMEM) with 5% fetal bovine serum (FBS), and were typically 80-100% confluent prior to experimentation. HepG2, SK-N-SH, and EMEG32^−/− cells were cultured in Dulbecco's modified Eagle's medium (DMEM) with 5% fetal bovine serum (FBS), CHO cells in DMEMF-12 with 5% FBS and PC12 cells in DMEM with 5% FBS and 5% horse serum. Prior to experimentation, PC12 cells were plated at a density of 3-4×10^5 cells10 cm plate, which had been pre-treated with 5 μgcm^2 rat tail collagen (BD Biosciences). Cells were differentiated in DMEM containing 1% horse serum, in the presence of 2.5S mouse nerve growth factor (Chemicon) at a final concentration of 25 ng mL^−1, for 4-5 days prior to treatment. Other cell lines were 80-100% confluent prior to treatment. […]
Antibodieslectins: O-GlcNAc levels were assessed primarily using CTD110.6 (Covance), but RL2 (Abcam) and HGAC85 (Abcam) were also tested. […] OGA levels were assessed using a polyclonal anti-OGA antibody which was a kind gift from Dr. Gerald Hart and OGT levels using H-300 (Santa Cruz Biotechnology). nup62 was probed using mAb 414 (Covance). […]

[2] = system: UDP-sugar nucleotide pools in COS-7 cells; test: UDP-sugar pools extracted from treated COS-7 cells, capillary electrophoresis; type: cell-based, African green monkey
Method: Capillary electrophoresis (CE): CE was performed on a ProteomeLab PA800 (Beckman-Coulter) using fused silica capillaries of […]×44 cm (to detector). The running buffer was 40 mM Na2B4O7 (Sigma), pH 9.5, containing 1.0% (wv) polyethylene glycol (MW 20,000; Fluka) and filtered prior to use. The capillary was conditioned by washing with 1 N NaOH (2 min, 20 psi), 18 MΩ H2O (3 min, 20 psi) and running buffer (5 min, 40 psi). After injecting a short (15 nL) H2O plug, samples were electrostatically introduced and pre-concentrated at the anode by applying a potential of -0.5 kV for 10 s according to the field-amplified sample injection technique described by Chien and Burgi^39. Electrophoresis was carried out at a constant voltage of 30 kV and capillary temperature of 22° C. Electropherograms were derived by measuring the absorbance at 254 (+/−10) nm at a rate of 4 Hz. Peaks were integrated using 32 Karat 5.0 software (Beckman-Coulter) and all peaks were normalized to the GDP-Glc internal standard.
Extraction of nucleotide sugars from cell lysates: COS-7 cells, on 10 cm plates, were treated with 0, 50, 250 or 1000 μM Ac-5SGlcNAc for 24 h; each condition was performed in triplicate. Cells were washed gently with PBS prior to the addition of 1 mL PBS containing 10 mM EDTA. Cells were incubated at 37° C. for […], the cells scraped from the plate, and pelleted by centrifugation (1000 rpm, 10 min, 4° C.). Cell pellets were immediately lysed by the addition of 750 μL 75% (vv) ethanol (−20° C.) and sonicated using a W-375 ultrasonic processor (Heat Systems Ultrasonics, Inc.). Insoluble material was removed by centrifugation (14,000 rpm, 15 min, 4° C.) and the supernatant was snap frozen and lyophilized^44,45. The crude extract was spiked with GDP-Glc (200 pmol) as an internal standard, dissolved in 0.5 mL 18 MΩ H2O and nucleotide sugars extracted using Envi-Carb graphite solid-phase extraction cartridges (200 mg) (Supelco) as described by Räbinä et al^38. Briefly, Envi-Carb cartridges were conditioned with 80% (vv) CH3CN and 20% 0.1% (vv) TFA (3 mL), followed by 18 MΩ H2O (6 mL), before samples were applied. After passing the samples through the SPE cartridge, the cartridge was sequentially washed with 2 mL of each of 18 MΩ H2O, 25% (vv) CH3CN, and 50 mM triethylammonium acetate (TEAA), pH 7.0. Sugar nucleotides were eluted with 3×1 mL 25% CH3CN in 50 mM TEAA, pH 7.0, passed through a 0.22 μm filter (Millipore), lyophilized, and stored at −20° C. until analysis. Extracted sugar nucleotides were dissolved in 200 μL 18 MΩ H2O and an aliquot was diluted 1:4 prior to characterization by CE using a method adapted from Feng et al^46.

For `CC(=O)NC1C(OC(C)=O)SC(COC(C)=O)C(OC(C)=O)C1OC(C)=O` [Compound 9, N-Acetyl-1,3,4,6-tetra-O-acetyl-α-D-5-thio-glucosamine], the “O-GlcNAc levels at last time point of growth curve” value ([1]; 50 μM, 5 days) was “O-GlcNAc levels are still significantly decreased in cells treated with Ac-5SGlcNAc”, the EC50 ([1]; Cricetulus griseus, 24 h, read-out: EC50 for reduction of O-GlcNAc levels) was 800 nM and the “UDP-GlcNAc levels relative to basal” value ([2]; 50 μM) was “more than 60 % of basal levels”. The “UDP-Glc and UDP-Gal levels in cells” value ([2]; COS-7, 0-1000 μM, 24 h) was “uridine diphosphoglucose and uridine diphosphogalactose levels are unaffected”, the “UDP-GlcNAc levels in cells” value ([2]; COS-7, 0-1000 μM, 24 h) was “small decrease in UDP-GlcNAc levels” and the “amount of UDP-5SGlcNAc in cells” value ([2]; COS-7, 0-1000 μM, 24 h) was “dose dependent increase in the amount of UDP-5SGlcNAc in cells”.
